Data: patent publication US20120003298A1, “METHODS FOR INDUCING AN IMMUNE RESPONSE” (priority 2010, published 2012)
Where two headings read alike, the source gives them in different places.

Assays:
[1] = Metabolic profiling in human plasma, LC/MS/MS; type: in vitro ADME
Description: (§1) Before the analysis of the incubated samples, compound A was infused manually to understand parent fragmentation. Infusion was performed by diluting a 50 mM solution in DMSO to 1 μM with ACN/MeOH 1/1. Sample solution was infused into the ion trap source at a flow rate of 4 μl/min.
(§2) Incubated samples were analyzed on a HPLC (Waters) interfaced with an Ion Trap HCT ultra (Bruker Daltonics).
(§3) Assignment of the structures was done by comparison of the MS/MS analysis of the spectra with the parent spectrum.
(§4) Metabolic profiling was studied in rabbit and human plasma. In both matrixes the parent compound (50 uM starting concentration) was totally metabolized at the last time point. Metabolites were detected in Full scan and peaks were assigned by MH+ and MS/MS spectra.

[2] = tested on: PBMCs; experiment: IL-6 and TNF-alpha secretion in PBMC model (Model 2), ELISA; type: cell-based, human; conditions: Homo sapiens, PBMC
[3] = tested on: RAW.264 cells; experiment: Intracellular uptake in RAW.264 cells, LC-MS; type: in vitro ADME; conditions: 10 microM
Description: 5×10^6 RAW.264 cells were adhered overnight in 10 cm tissue culture dishes. […] […] Supernatant (2 ml) and cells (pellets) were collected by trypsinization and frozen at […] for subsequent analysis by LC-MS.

[4] = tested on: human whole blood; experiment: Cytokine secretion in human whole blood assay, ELISA; type: cell-based; conditions: Homo sapiens
Description: Before drawing the blood, the compounds were added to 96 well round bottom plates in a 10× diluted sample at 20 ul. The compounds were diluted in RPMI media without serum but with antibiotics. Antibiotics were added at a 10× concentration. After drawing the blood, the whole blood sample was gently mixed to obtain a homogeneous sample, and 180 ul was added to each well.
All compounds were setup in concentrations at 0-0.01-0.03-0.1-0.5-2.0-10.0 micromolar as the final concentration. Vehicle control was DMSO control, where we used the highest concentration used for the compounds. After addition of blood, all plates were gently agitated at 37° C. and 5% CO2 until harvest.
For the 6 hours time point, the plate was centrifuged 500×g. Supernatant (SN) was transferred to a tube and centrifuged at 10.000×g for 10 min to get rid of cells and protein aggregates. The clarified supernatant was frozen at −80° C. until analysis.
The SN was removed to another tube and centrifuged at 10.000×g for 10 min. to get rid of aggregates etc. The clarified supernatant was frozen at −80° C. until analysis.
Concentrations of cytokines were determined by ELISA from R&D Systems. The results were analyzed in Graph Pad Prism in order to prepare dose-response
curves, and for determination of EC50 values. FACS analysis was made by using Becton-Dickinson FACSDiva software and subsequently illustrated in Graph Pad Prism.

[5] = tested on: recombinant antigens from Plasmodium falciparum and Mycobacterium ulcerans; experiment: Pilot immunization study with adjuvanted recombinant protein antigens; type: in vivo, mouse; conditions: subcutaneous, 10 nMol
Description: A pilot immunization study was conducted using Compound A and SC12 adjuvanted protein antigens. The immunization experiments were performed with two recombinant proteins expressed in E. coli. One antigen was derived from the malaria parasite Plasmodium falciparum and the other one from Mycobacterium ulcerans, which cause the ulcerative skin disease Buruli ulcer.

[6] = Metabolic profiling in rabbit plasma, LC/MS/MS; type: in vitro ADME
Description: as §1, §2, §3, §4

[7] = tested on: mouse macrophage cell line Raw264.7; experiment: IL-6 and TNF-alpha secretion in Raw264.7 cells (Model 1), ELISA; type: cell-based; conditions: Mus musculus, RAW264.7, Raw 264.7, 24 hours, 7 doses
[8] = Stability on storage by HPLC (solid or chloroform solution; temperature, light)
Description: At this point, a stability study was conducted on batch CH730/16/8g.
The samples were analyzed at t=0 and after 20 days.

[9] = Solubility, method of the European Pharmacopoeia 6.0; type: physicochemical
Description: The method reported in the European Pharmacopoeia 6.0 was used.
Batch CH730/16/8g was tested according to the method described in E. Ph: DMSO was added in 0.1 mL portions to 103.7 mg of product and the suspension was shaken with a Vortex instrument for 3 min after each addition.
The batches CH730/16/8c, CH730/16/8g and CH730/23/8e were then tested stirring each suspension for a longer time; 100 mg of each batch dissolved completely in 0.2 mL of DMSO after stirring for 30 minutes.

CCCCCCCC/C=C\CCCCCCCC(=O)OCC(COP(=O)(O)OCCNC(=O)c1ccc(Cn2c(=O)[nH]c3c(N)nc(OCCOC)nc32)cc1)OC(=O)CCCCCCC/C=C\CCCCCCCC (centres unmarked) [Compound A, 2-(4-((6-amino-2-(2-methoxyethoxy)-8-oxo-7H-purin-9(8H)-yl)methyl)benzamido)ethyl 2,3-bis(oleoyloxy)propyl phosphate]
metabolism in plasma [1]: highly metabolized by esterases | EC50 ([2]; 24 hours, read-out: TNF-alpha secretion, Donor 1 MC50): 644 nM | EC50 ([2]; 24 hours, read-out: TNF-alpha secretion, Donor 2 MC50): 665 nM | EC50 ([2]; 24 hours, read-out: TNF-alpha secretion, Donor 3 MC50): 639 nM | EC50 ([2]; average of three donors, read-out: IL-6 secretion, Average EC50): 485 nM | EC50 ([2]; average of three donors, read-out: TNF-alpha secretion, Average EC50): 650 nM | Intracellular Concentration % of total ([3]; Incubation 1 hours): 5.50 % of total | Intracellular Concentration % of total ([3]; Incubation 6 hours): 4.27 % of total | Intracellular Concentration % of total ([3]; Incubation 16 hours): 1.53 % of total | EC50 ([4]; 6 h, read-out: EC50-IFN-alpha, 6 h Incubation, Donor 1, whole blood): 1170 nM | EC50 ([4]; 6 h, read-out: EC50-IFN-alpha, 6 h Incubation, Donor 2, whole blood): 1840 nM | EC50 ([4]; 6 h, read-out: EC50-IFN-alpha, 6 h Incubation, Donor 3, whole blood): 1940 nM | EC50 ([4]; 6 h, read-out: EC50-IL-6, 6 h Incubation, Donor 1, whole blood): 940 nM | EC50 ([4]; 6 h, read-out: EC50-IL-6, 6 h Incubation, Donor 2, whole blood): 630 nM | EC50 ([4]; 6 h, read-out: EC50-IL-6, 6 h Incubation, Donor 3, whole blood): 520 nM | EC50 ([4]; 6 h, read-out: EC50-IL-12, 6 h Incubation, Donor 1, whole blood, IL-12p40): 2310 nM | EC50 ([4]; 6 h, read-out: EC50-IL-12, 6 h Incubation, Donor 2, whole blood, IL-12p40): 2090 nM | EC50 ([4]; 6 h, read-out: EC50-IL-12, 6 h Incubation, Donor 3, whole blood, IL-12p40): 3430 nM | EC50 ([4]; 24 h, read-out: EC50-IFN-alpha, 24 h Incubation, Donor 1): 240 nM | EC50 ([4]; 24 h, read-out: EC50-IFN-alpha, 24 h Incubation, Donor 2): 470 nM | EC50 ([4]; 24 h, read-out: EC50-IFN-alpha, 24 h Incubation, Donor 3): 350 nM | EC50 ([4]; 24 h, read-out: EC50-IL-6, 24 h Incubation, Donor 1): 520 nM | EC50 ([4]; 24 h, read-out: EC50-IL-6, 24 h Incubation, Donor 2): 320 nM | EC50 ([4]; 24 h, read-out: EC50-IL-6, 24 h Incubation, Donor 3): 290 nM | EC50 ([4]; 24 h, read-out: EC50-IL-10, 24 h Incubation, Donor 1): 1290 nM | EC50 ([4]; 24 h, read-out: EC50-IL-10, 24 h Incubation, Donor 2): 860 nM | EC50 ([4]; 24 h, read-out: EC50-IL-10, 24 h Incubation, Donor 3): 2280 nM | EC50 ([4]; 24 h, whole blood, read-out: EC50-IL-12p40, 24 h Incubation, Donor 1): 2870 nM | EC50 ([4]; 24 h, whole blood, read-out: EC50-IL-12p40, 24 h Incubation, Donor 2): 2740 nM | EC50 ([4]; 24 h, whole blood, read-out: EC50-IL-12p40, 24 h Incubation, Donor 3): 4030 nM | local side effects [5]: No local side effects | metabolism in plasma [6]: highly metabolized by esterases | EC50 ([7]; read-out: EC 50 IL 6): 6 nM | EC50 ([7]; read-out: EC 50 TNF-alpha): 9 nM | degradation ([8]; T>25° C. and in the presence of light): rapid degradation | degradation of solid samples ([8]; batch CH730/16/8g, solid): almost completely degraded after few days | stability ([8]; room temperature and/or in the presence of light): not a stable compound | solubility in DMSO [9]: soluble | solubility ([9]; chloroform, organic solvent or mixture, thermodynamic from solid): 100 mg/mL | solubility at 3 min ([9]; organic solvent or mixture, thermodynamic from solid, batch Ch730/16/8g, DMSO added in 0.1 mL portions, Vortex 3 min after each addition): 259 mg/mL | solubility at 30 min ([9]; organic solvent or mixture, thermodynamic from solid, three batches, 100 mg in 0.2 mL of DMSO after stirring for 30 minutes): 500 mg/mL
